One compound from BindingDB's records for doi:10.1016/j.bmcl.2007.09.043 (Amgen, 2007) can be followed below.

A word on the EC50: it is the concentration giving half of the maximal effect. High values mean lower potency in that assay, low ones higher potency in that assay.

The assay deals with T1, N-formyl peptide receptor 2 (Homo sapiens, UniProt P25090).
T1 sequence (P25090 whole entry): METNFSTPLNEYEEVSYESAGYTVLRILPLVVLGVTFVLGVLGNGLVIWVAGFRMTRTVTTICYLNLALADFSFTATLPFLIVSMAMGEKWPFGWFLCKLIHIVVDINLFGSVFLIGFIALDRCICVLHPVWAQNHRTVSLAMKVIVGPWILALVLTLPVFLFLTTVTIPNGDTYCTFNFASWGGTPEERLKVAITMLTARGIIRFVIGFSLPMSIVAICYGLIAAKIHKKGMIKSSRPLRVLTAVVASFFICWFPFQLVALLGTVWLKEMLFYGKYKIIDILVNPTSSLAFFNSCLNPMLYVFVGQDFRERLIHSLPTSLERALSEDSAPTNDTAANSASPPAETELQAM
Put plainly: hFPRL1-Mediated Ca2+ Mobilization Assay. Conditions: pH 7.2; 37 °C. The method, then: hFPRL 1 activity was assayed using an aequorin-based bioluminescence assay (Ca2+ flux). EC50 values have been determined by Ca2+ flux in CHO recombinant cells co-expressing hFPRL1, G (alpha15) protein, and aequorin.

Consider `COc1ccc2[nH]c(C(=O)N3CCC(n4c(=O)[nH]c5ccccc54)CC3)cc2c1` [1-{1-[(5-methoxy-1H-indol-2-yl)carbonyl]piperidin-4-yl}-1,3-dihydro-2H-benzimidazol-2-one], for which it took 6.39 µM to reach a half-maximal effect (EC50).
